Experimental findings from patent publication US20050272677A1, “Delivery of a substance to a pre-determined site” (priority 2002, published 2005) are described below.

Data set [1] in a line: Gelation experiment (gel formation in solvents). The format is physicochemical. Details: key to Gelation properties: g = gel; i = insoluble; p = precipitate; sol = soluble. The protocol:
To obtain a gel or to thicken the solvent, the compound is mixed with the required solvent or a mixture of solvents in an amount between 0.01 and 50 wt. %, based on the weight of the composition. Typically, the dissolution of the components will be performed by heating (in some cases it may be helpful to homogenize the components, e.g., vortex) them together at temperatures of 20° C. to 200° C., preferably 50° C. to 150° C. Cooling these hot solutions to a preferred temperature in the range of −20° C. to 100° C., preferably 4° C. to 100° C. affords the gel or thickened solvent. […] In an alternative embodiment, the gelling agent is first dissolved in a polar or apolar solvent followed by the addition of another solvent or solvent mixture, thereby causing gelation to take place.
It will be understood that the use of the present gelling agents or thickeners to prepare a gel or to thicken a composition is also encompassed by the invention. As is well-known, gelling behavior of compounds or compositions is highly unpredictable. […] Preferably, the gelling phenomenon is thermoreversible.
In a typical gelation experiment, a carefully weighed amount of the dithienylcyclopentene derivative under investigation and 1 ml of the solvent are placed in a test tube, which is sealed and then heated until the compound is dissolved. The solution is allowed to cool to room temperature. […] The gelation process could be followed by UV-vis and CD spectroscopy as depicted in FIG. 58. At low concentrations (0.35 mM), compound D is dissolved in toluene. […] Increasing the concentration to 1.8 mM causes gelation of the solvent, which is accompanied by a change of the UV-visible spectrum, together with the appearance of a strong CD signal at 323 nm (FIG. 58, panels (a) and (c)). Similar changes in the UV-vis and CD spectrum are observed upon gelation of the 1.8 mM solution of D in toluene by cooling to a temperature below the sol-gel phase transition (from here on, referred to as gel(o)). From a plot of the increase of the CD signal versus the temperature, the sol-gel phase transition temperature of gel(o) was determined to be 29° C. for a 1.8 mM solution of D in toluene.

Data set [2] in a line: Gelation in the presence of surfactants and polymeric micelles. The arrangement: key: G = gel; C = crystalline; G^a: ^a= not stable. The class given is physicochemical.
Data set [3] has as its system pB104 strain (MscL null E. coli). Briefly: Growth assay of MscL mutants on agar plates with or without IPTG. Details: key: ++++: growth equal to cells expressing wild-type MscL; growth is indicated by ++++ to −; growth is indicated by ++++ to −; growth is indicated by ++++ to −; −: an absence of growth. The note with it: pB104 with Lac-inducible plasmid; for Growth on agar plates +IPTG: with IPTG; for Growth on agar plates −IPTG: without IPTG. The format is cell-based. The protocol:
The constructs of the MscL-6His mutants were constructed using standard molecular biology techniques. The mutants were tested in the pB104 strain (MscL null E. coli) by a growth assay on agar plates with or without IPTG (K. Yoshimura et al., 1999, Biophys. J. 77:1960-1972).
The first phenotype (++) grows like the single G22S mutant.

Where a chain is given by its changes, count along the chain named. In names and notes the source's numbering stands.

Take `O=C(O)CCNC(=O)[C@H](Cc1ccccc1)NC(=O)[C@H]1C[C@@H](C(=O)N[C@@H](Cc2ccccc2)C(=O)NCCC(=O)O)C[C@@H](C(=O)N[C@@H](Cc2ccccc2)C(=O)NCCC(=O)O)C1` [gelator 12, cHexAm(L)Phe(β)AlaOH]: the solvents gelated entry in data set [1] is reported as “water”.
Still for that read-out and setting: to `COC(=O)CC[C@H](NC(=O)[C@H]1C[C@@H](C(=O)N[C@@H](CCC(=O)OC)C(=O)OC)C[C@@H](C(=O)N[C@@H](CCC(=O)OC)C(=O)OC)C1)C(=O)OC` [gelator 7, CHexAmGluOMe] belongs “both organic solvents and water”.
Turning to `O=C(N[C@@H](Cc1ccccc1)C(=O)O)[C@H]1C[C@@H](C(=O)N[C@H](Cc2ccccc2)C(=O)O)C[C@@H](C(=O)N[C@H](Cc2ccccc2)C(=O)O)C1` [10b, CHexAmPheOH (DDL)], in data set [1], the solvents gelated result is listed as “water”.
As to CHexAmPheAmGluOH [gelator 13], the solvents gelated entry in data set [1] was “water”.
Same read-out and setting: to `COC(=O)C[C@H](NC(=O)[C@H]1C[C@@H](C(=O)N[C@@H](CC(=O)OC)C(=O)OC)C[C@@H](C(=O)N[C@@H](CC(=O)OC)C(=O)OC)C1)C(=O)OC` [gelator 8, CHexAmAspOMe] belongs “both organic solvents and water”; to `Cc1sc(C(=O)N[C@H](C)C2CCCCC2)cc1C1=C(c2cc(C(=O)N[C@H](C)C3CCCCC3)sc2C)CCC1` [Compound E, 1,2-Bis(2′-methyl-5′-{(((R)-1-cyclohexylethyl)amino)carbonyl}thien-3′-yl)cyclopentene], “hexadecane, cyclohexane, 1-phenyloctane, toluene, n-butylether, benzene, tetralin, 1,4-dioxane, and n-butyl acetate”.
With CHex-Am-Met-Am-Borate, the solvents gelated entry in data set [1] is “water and lower alcohols”.
Regarding racemic CHex-bisurea dihexylamine [5b], the Gelation properties entry is recorded as “sol” in data set [1] (1 N NaHCO3); “g” in data set [1] (1 N NaOH); “g” in data set [1] (25% Ammonia); “sol” in data set [1] (buffer PH 5.7); “sol” in data set [1] (buffer PH 6.3); “g” in data set [1] (buffer PH 7.2). Further, the Gelation properties entry in data set [1] (buffer PH 7.9) and in data set [1] (water) was “g” in each case.
With `O=C(NC(Cc1ccccc1)C(=O)O)C1CC(C(=O)NC(Cc2ccccc2)C(=O)O)CC(C(=O)NC(Cc2ccccc2)C(=O)O)C1` (single isomer, unassigned) [LLL diasteroisomer, CHexAmPheOH], the solvents gelated result in data set [1] is on record as “only gelates lower alcohols”.
Regarding (1S,2S) CHex-bisurea dihexylamine [5a], the Gelation properties result in data set [1] (1 N NaHCO3) is reported as “i”; in data set [1] (1 N NaOH), “i”; in data set [1] (25% Ammonia), “g”; in data set [1] (buffer PH 5.7), “sol”; in data set [1] (buffer PH 7.2), “p”; in data set [1] (buffer PH 7.9) it was “g”. Moreover, the Gelation properties entry in data set [1] (water) is “g”.
Take CHex-Am-Ser(Bzl)-Am-Borate: the solvents gelated entry in data set [1] is “water and lower alcohols”.
In the case of `O=C(O)C(Cc1ccccc1)NC(=O)[C@H]1C[C@@H](C(=O)NC(Cc2ccccc2)C(=O)O)C[C@@H](C(=O)NC(Cc2ccccc2)C(=O)O)C1` (mixture of isomers) [10a, CHexAmPheOH (mixture of isomers)], the solvents gelated result in data set [1] is reported as “water”.
Take CHex-Am-Met-Am-EtOH: the solvents gelated entry in data set [1] is “water”.
On the same count and under the same terms, to `COC(=O)[C@H](Cc1c[nH]cn1)NC(=O)[C@H](CCSC)NC(=O)[C@@H]1C[C@H](C(=O)NC(CCSC)C(=O)N[C@H](Cc2c[nH]cn2)C(=O)OC)C[C@H](C(=O)N[C@@H](CCSC)C(=O)N[C@@H](Cc2c[nH]cn2)C(=O)OC)C1` (some centres unmarked) [gelator 14, CHexAmMetHisOMe] belongs “water”; to CHex-Am-Phe-Am-Borate, “water and lower alcohols”.
As to `O=C(OCCO)[C@H](Cc1ccccc1)NC(=O)[C@H]1C[C@@H](C(=O)N[C@@H](Cc2ccccc2)C(=O)OCCO)C[C@@H](C(=O)N[C@@H](Cc2ccccc2)C(=O)OCCO)C1` [gelator 2, CHexAmPheOCH2CH2OH], in data set [1], the solvents gelated entry is “water and lower alcohols”. Besides, the Gelation properties entry is “G^a” in data set [2] (Nonionic (Lactose der.) < CMC); “G^a” in data set [2] (Nonionic (Lactose der.) > CMC); “g^a” in data set [2] (Pluronic P 105, 5 mg · ml^−1); “g^a” in data set [2] (Pluronic P 105, 100 mg · ml^−1); “G^a” in data set [2] (anionic (SDS) < CMC); “G^a” in data set [2] (anionic (SDS) > CMC). In addition, the Gelation properties entry in data set [2] (cationic (CTAB) < CMC) and in data set [2] (cationic (CTAB) > CMC) was “G^a” in each case.
Regarding `CC(NC(=O)[C@H](Cc1ccccc1)NC(=O)[C@H]1C[C@@H](C(=O)N[C@@H](Cc2ccccc2)C(=O)N[C@H](C)C(=O)O)C[C@@H](C(=O)N[C@@H](Cc2ccccc2)C(=O)N[C@H](C)C(=O)O)C1)C(=O)O` (some centres unmarked) [gelator 11, CHexAm(L)Phe(D)AlaOH], the solvents gelated result in data set [1] was “water and lower alcohols”.
The same measure, in the same setting: to `Cc1sc(C(=O)Nc2ccccc2)cc1C1=C(c2cc(C(=O)Nc3ccccc3)sc2C)CCC1` [Compound C, 1,2-Bis(5′-(anilinocarbonyl)-2′-methyl-thien-3′-yl) cyclopentene] belongs 1-phenyloctane, toluene, n-butylether, benzene, tetralin; to `CC(C)[C@H](NC(=O)[C@H]1C[C@@H](C(=O)N[C@H](C(=O)O)C(C)C)C[C@@H](C(=O)N[C@H](C(=O)O)C(C)C)C1)C(=O)O` [CHex-Am-Val-OH], “water”.

B1: E06/G22S (protein, UniProt P0A742 1-136, looked up, variant E6H G22S)
Large-conductance …: MSIIKHFREFAMRGNVVDLAVSVIIGAAFGKIVSSLVADIIMPPLGLLIGGIDFKQFAVTLRDAQGDIPAVVMHYGVFIQNVFDFLIVAFAIFMAIKLINKLNRKKEEPAAAPAPTKEEVLLTEIRDLLKEQNNRS
As to B1, in data set [3], the “Growth on agar plates +IPTG” value is “+++” and the “Growth on agar plates −IPTG” value is listed as “++++”.

B2: R13H/G22S (protein, UniProt P0A742 1-136, looked up, variant R13H G22S)
Large-conductance …: B1 Large-conductance … with H6E, R13H
B2: in data set [3], the “Growth on agar plates +IPTG” value was “−” and the “Growth on agar plates −IPTG” value is listed as “++++”.

B3: A11H/G22S (protein, UniProt P0A742 1-136, looked up, variant A11H G22S)
Large-conductance …: B1 Large-conductance … with H6E, A11H
As to B3, in data set [3], the “Growth on agar plates +IPTG” value is recorded as “++” and the “Growth on agar plates −IPTG” value is “++++”.

B4: F10H (protein, UniProt P0A742 1-136, looked up, variant F10H)
Large-conductance …: B1 Large-conductance … with H6E, F10H, S22G
Consider B4, for which, in data set [3], the “Growth on agar plates +IPTG” value is on record as “++++” and the “Growth on agar plates −IPTG” value was “++++”.

B5: F10H/G22S (protein, UniProt P0A742 1-136, looked up, variant F10H G22S)
Large-conductance …: B1 Large-conductance … with H6E, F10H
B5: in data set [3], the “Growth on agar plates +IPTG” value is listed as “+” and the “Growth on agar plates −IPTG” value is on record as “++++”.

B6: M12H/G22S (protein, UniProt P0A742 1-136, looked up, variant M12H G22S)
Large-conductance …: B1 Large-conductance … with H6E, M12H
With B6, in data set [3], the “Growth on agar plates +IPTG” value is listed as “++” and the “Growth on agar plates −IPTG” value is “++++”.

B7: A11H (protein, UniProt P0A742 1-136, looked up, variant A11H)
Large-conductance …: B1 Large-conductance … with H6E, A11H, S22G
B7: in data set [3], the “Growth on agar plates +IPTG” value was “++++” and the “Growth on agar plates −IPTG” value is “++++”.

B8: M12H (protein, UniProt P0A742 1-136, looked up, variant M12H)
Large-conductance …: B1 Large-conductance … with H6E, M12H, S22G
On to B8, for which, in data set [3], the “Growth on agar plates +IPTG” value is “++++” and the “Growth on agar plates −IPTG” value was “++++”.
